Assays:
Assay type in all cases: in vivo
[1] = tested on: giant foxtail (Setaria faberii); assay: Test A preemergence; details: Setaria faberi, pre-emergence, 240 h; for pest or weed control at 125 g/ha: 125 g ai/ha, preemergence, visual rating after approx. 10 d, 0 to 100 scale where 0 is no effect and 100 is complete control; for pest or weed control at 125 g/ha / pest or weed control at 31 g/ha: read-out: Plant response rating, Foxtail, Giant; for pest or weed control at 31 g/ha: 31 g ai/ha, 0 to 100 scale (0 no effect, 100 complete control)
In short: (§1)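 Seeds sprayed preemergence with a directed soil spray, or plants at 2 to 10 cm height and one- to two-leaf stage sprayed postemergence, with test chemicals in a non-phytotoxic solvent mixture containing surfactant, in loam soil–sand blend. Injury rated visually against untreated controls after about 10 d in greenhouse, 0 (no effect) to 100 (complete control).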

[2] = tested on: ryegrass, Italian (Italian ryegrass, Lolium multiflorum); assay: Test A preemergence; details: Lolium multiflorum, pre-emergence, 240 h; for pest or weed control at 125 g/ha: 125 g ai/ha, preemergence, visual rating after approx. 10 d, 0 to 100 scale where 0 is no effect and 100 is complete control; for pest or weed control at 125 g/ha / pest or weed control at 31 g/ha: read-out: Plant response rating, Ryegrass, Italian; for pest or weed control at 31 g/ha: 31 g ai/ha, 0 to 100 scale (0 no effect, 100 complete control)
In short: as §1

[3] = tested on: pigweed (Amaranthus retroflexus); assay: Test A preemergence; details: Amaranthus retroflexus, pre-emergence, 240 h; for pest or weed control at 125 g/ha: 125 g ai/ha, preemergence, visual rating after approx. 10 d, 0 to 100 scale where 0 is no effect and 100 is complete control; for pest or weed control at 125 g/ha / pest or weed control at 31 g/ha: read-out: Plant response rating, Pigweed; for pest or weed control at 31 g/ha: 31 g ai/ha, 0 to 100 scale (0 no effect, 100 complete control)
[4] = tested on: ragweed (common ragweed, Ambrosia elatior); assay: Test A preemergence; details: Ambrosia artemisiifolia, pre-emergence, 240 h; for pest or weed control at 125 g/ha: 125 g ai/ha, preemergence, visual rating after approx. 10 d, 0 to 100 scale where 0 is no effect and 100 is complete control; for pest or weed control at 125 g/ha / pest or weed control at 31 g/ha: read-out: Plant response rating, Ragweed; for pest or weed control at 31 g/ha: 31 g ai/ha, 0 to 100 scale (0 no effect, 100 complete control)
In short: as §1

Kochia (Kochia scoparia) [5] = assay: Test A preemergence; details: Bassia scoparia, pre-emergence, 240 h; for pest or weed control at 125 g/ha: 125 g ai/ha, preemergence, visual rating after approx. 10 d, 0 to 100 scale where 0 is no effect and 100 is complete control; for pest or weed control at 125 g/ha / pest or weed control at 31 g/ha: read-out: Plant response rating, Kochia; for pest or weed control at 31 g/ha: 31 g ai/ha, 0 to 100 scale (0 no effect, 100 complete control)
In short: as §1

[6] = tested on: barnyardgrass (Echinochloa crus-galli); assay: Test A preemergence; details: Echinochloa crus-galli, pre-emergence, 240 h; for pest or weed control at 125 g/ha: 125 g ai/ha, preemergence, visual rating after approx. 10 d, 0 to 100 scale where 0 is no effect and 100 is complete control; for pest or weed control at 125 g/ha / pest or weed control at 31 g/ha: read-out: Plant response rating, Barnyardgrass; for pest or weed control at 31 g/ha: 31 g ai/ha, 0 to 100 scale (0 no effect, 100 complete control)
In short: as §1

[7] = tested on: giant foxtail (Setaria faberii); assay: Test A postemergence; details: Setaria faberi, post-emergence, 240 h, read-out: Plant response rating, Foxtail, Giant; for pest or weed control at 125 g/ha: 125 g ai/ha, postemergence, visual injury after approximately 10 d, 0 to 100 scale (0 no effect, 100 complete control); for pest or weed control at 31 g/ha: Postemergence, 31 g ai/ha, visual injury after approx. 10 d, 0 to 100 scale, 0 no effect, 100 complete control
In short: as §1

[8] = tested on: ryegrass, Italian (Italian ryegrass, Lolium multiflorum); assay: Test A postemergence; details: Lolium multiflorum, post-emergence, 240 h, read-out: Plant response rating, Ryegrass, Italian; for pest or weed control at 125 g/ha: 125 g ai/ha, postemergence, visual injury after approximately 10 d, 0 to 100 scale (0 no effect, 100 complete control); for pest or weed control at 31 g/ha: Postemergence, 31 g ai/ha, visual injury after approx. 10 d, 0 to 100 scale, 0 no effect, 100 complete control
In short: as §1

Kochia (Kochia scoparia) [9] = assay: Test A postemergence; details: Bassia scoparia, post-emergence, 240 h, read-out: Plant response rating, Kochia; for pest or weed control at 125 g/ha: 125 g ai/ha, postemergence, visual injury after approximately 10 d, 0 to 100 scale (0 no effect, 100 complete control); for pest or weed control at 31 g/ha: Postemergence, 31 g ai/ha, visual injury after approx. 10 d, 0 to 100 scale, 0 no effect, 100 complete control
In short: as §1

[10] = tested on: blackgrass (Alopecurus myosuroides); assay: Test A postemergence; details: Alopecurus myosuroides, post-emergence, 240 h, read-out: Plant response rating, Blackgrass; for pest or weed control at 125 g/ha: 125 g ai/ha, postemergence, visual injury after approximately 10 d, 0 to 100 scale (0 no effect, 100 complete control); for pest or weed control at 31 g/ha: Postemergence, 31 g ai/ha, visual injury after approx. 10 d, 0 to 100 scale, 0 no effect, 100 complete control
In short: as §1

[11] = tested on: ducksalad (Heteranthera limosa); assay: Test B flooded paddy test; details: Heteranthera limosa, Flood, 250 g ai/ha; scale of 0 to 100 where 0 is no effect and 100 is complete control; read-out: Ducksalad plant response rating
In short: (§2)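 Greenhouse paddy pots with 2-leaf stage plants received compound by direct addition to floodwater 3 cm deep, kept at that level. Scored visually at 13–15 d versus controls (0 no effect; 100 complete control).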

rice (Oryra sativa) = assay: Test B flooded paddy test; details: Oryza sativa, Flood, 250 g ai/ha; scale of 0 to 100 where 0 is no effect and 100 is complete control; read-out: Rice plant response rating
In short: as §2

[12] = tested on: sedge, umbrella (small-flower umbrella sedge, Cyperus difformis); assay: Test B flooded paddy test; details: Cyperus difformis, Flood, 250 g ai/ha; scale of 0 to 100 where 0 is no effect and 100 is complete control; read-out: Sedge, Umbrella plant response rating
In short: as §2

[13] = tested on: barnyardgrass (Echinochloa crus-galli); assay: Test B flooded paddy test; details: Echinochloa crus-galli, Flood, 250 g ai/ha; scale of 0 to 100 where 0 is no effect and 100 is complete control; read-out: Barnyardgrass plant response rating
In short: as §2

Structure (SMILES)	pest or weed control at 125 g/ha [1] [%]	pest or weed control at 125 g/ha [2] [%]	pest or weed control at 125 g/ha [3] [%]	pest or weed control at 125 g/ha [4] [%]	pest or weed control at 125 g/ha (Kochia (Kochia scoparia) [5]) [%]	pest or weed control at 125 g/ha [6] [%]	pest or weed control at 125 g/ha [7] [%]	pest or weed control at 125 g/ha [8] [%]	pest or weed control at 125 g/ha (Kochia (Kochia scoparia) [9]) [%]	pest or weed control at 125 g/ha [10] [%]	pest or weed control at 250 g/ha [11] [%]	pest or weed control at 250 g/ha (rice (Oryra sativa)) [%]	pest or weed control at 250 g/ha [12] [%]	pest or weed control at 250 g/ha [13] [%]	pest or weed control at 31 g/ha ([1]; Preemergence) [%]	pest or weed control at 31 g/ha ([2]; Preemergence) [%]	pest or weed control at 31 g/ha ([3]; Preemergence) [%]	pest or weed control at 31 g/ha ([4]; Preemergence) [%]	pest or weed control at 31 g/ha (Kochia (Kochia scoparia) [5]; Preemergence) [%]	pest or weed control at 31 g/ha ([6]; Preemergence) [%]	further results
CN1C[C@H](c2ccc(OC(F)F)cc2)[C@@H](C(=O)Nc2ccccc2S(C)(=O)=O)C1=O [Compound 788]	90	0	80	80	80	90	70	20	40	20	60	0	0	20							pest or weed control at 500 g/ha ([1]; 500 g ai/ha, Preemergence, visual injury vs untreated controls after approximately 10 d, read-out: Foxtail, Giant plant response rating (0 to 100 scale where 0 is no effect and 100 is complete control)): 100%; pest or weed control at 500 g/ha ([2]; 500 g ai/ha, Preemergence, visual injury vs untreated controls after approximately 10 d, read-out: Ryegrass, Italian plant response rating (0 to 100 scale where 0 is no effect and 100 is complete control)): 40%; pest or weed control at 500 g/ha ([3]; 500 g ai/ha, Preemergence, visual injury vs untreated controls after approximately 10 d, read-out: Pigweed plant response rating (0 to 100 scale where 0 is no effect and 100 is complete control)): 90%; pest or weed control at 500 g/ha ([4]; 500 g ai/ha, Preemergence, visual injury vs untreated controls after approximately 10 d, read-out: Ragweed plant response rating (0 to 100 scale where 0 is no effect and 100 is complete control)): 90%; pest or weed control at 500 g/ha (Kochia (Kochia scoparia) [5]; 500 g ai/ha, Preemergence, visual injury vs untreated controls after approximately 10 d, read-out: Kochia plant response rating (0 to 100 scale where 0 is no effect and 100 is complete control)): 80%; pest or weed control at 500 g/ha ([6]; 500 g ai/ha, Preemergence, visual injury vs untreated controls after approximately 10 d, read-out: Barnyardgrass plant response rating (0 to 100 scale where 0 is no effect and 100 is complete control)): 90%
Cc1cc([C@H]2CN(C)C(=O)[C@@H]2C(=O)Nc2cccc(F)c2F)cc(C)c1C [Compound 796]	90	20	40	0	20	90	90	40	0	30	90	40	0	70	90	0	20	0	0	70	pest or weed control at 31 g/ha [7]: 80%; pest or weed control at 31 g/ha [8]: 0%; pest or weed control at 31 g/ha (Kochia (Kochia scoparia) [9]): 0%; pest or weed control at 31 g/ha [10]: 0%
Cc1cc([C@H]2CN(C)C(=O)[C@@H]2C(=O)Nc2ccccc2F)cc(C)c1C [Compound 797]	90	50	20	0	20	90	90	40	0	0	90	25	0	90	90	0	0	0	0	80	pest or weed control at 31 g/ha [7]: 80%; pest or weed control at 31 g/ha [8]: 0%; pest or weed control at 31 g/ha (Kochia (Kochia scoparia) [9]): 0%; pest or weed control at 31 g/ha [10]: 0%

— patent publication US12077503B2, “Substituted cyclic amides and their use as herbicides” (FMC CORPORATION, priority 2015, dated 2024)
